Patent US20200024278A1, “COMPOSITION COMPRISING ANTIBIOTIC COMPOUND AND AN HETEROCYCLIC COMPOUND AND THEIR USE IN PREVENTING OR TREATING BACTERIAL INFECTIONS” (MUTABILIS, priority 2016, published 2020)

Experiments:
Assay in all cases: MIC, broth microdilution (CLSI), substance alone or ATB combined with compound at 4 or 8 μg/mL
[1] = test system: PAE 105250; assay type: cell-based, P. aeruginosa; settings: PAE 105250; for MIC ATB combined with Example: Example @8 μg/ml; for MIC ATB combined with Example compound: compound @8 μg/ml
Summary of the method: (§1)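 Each strain received 5·10^5 CFU/mL of log-phase cells in ca-MHB over DMSO-spotted compound or compound-antibiotic combinations. After 16-20 h at 35° C, growth was scored visually.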

[2] = test system: PAE UFR90; assay type: cell-based, P. aeruginosa; settings: PAE UFR90; for MIC ATB combined with Example: Example @8 μg/ml; for MIC ATB combined with Example compound: compound @8 μg/ml
Summary of the method: as §1

[3] = test system: PAE UFR48; assay type: cell-based, P. aeruginosa; settings: PAE UFR48; for MIC ATB combined with Example: Example @8 μg/ml; for MIC ATB combined with Example compound: compound @8 μg/ml
Summary of the method: as §1

[4] = test system: ECO 190317; assay type: cell-based, E. coli; settings: for MIC ATB combined with Example: Example @8 μg/ml
Summary of the method: as §1

[5] = test system: ECO UFR39; assay type: cell-based, E. coli; settings: for MIC ATB combined with Example / MIC ATB combined with Example compound: ECO UFR39; for MIC ATB combined with Example: Example @8 μg/ml; for MIC ATB combined with Example compound: compound @8 μg/ml
Summary of the method: as §1

[6] = test system: SPN 49619; assay type: cell-based, S. pneumoniae; settings: for MIC ATB combined with Example / MIC ATB combined with Example compound: SPN 49619; for MIC ATB combined with Example: Example @8 μg/ml; for MIC ATB combined with Example compound: compound @8 μg/ml
Summary of the method: as §1

[7] = test system: KPN UFR42; assay type: cell-based, K. pneumoniae; settings: for MIC ATB combined with Example / MIC ATB combined with Example compound: KPN UFR42; for MIC ATB combined with Example: Example @8 μg/ml; for MIC ATB combined with Example compound: compound @8 μg/ml
Summary of the method: as §1

[8] = test system: KPN BAA-1898; assay type: cell-based, K. pneumoniae; settings: for MIC ATB combined with Example: Example @8 μg/ml
Summary of the method: as §1

[9] = test system: KPN 6299; assay type: cell-based, K. pneumoniae; settings: for MIC ATB combined with Example: Example @8 μg/ml
Summary of the method: as §1

[10] = test system: SAU 29213; assay type: cell-based, S. aureus; settings: for MIC ATB combined with Example / MIC ATB combined with Example compound: SAU 29213; for MIC ATB combined with Example: Example @8 μg/ml; for MIC ATB combined with Example compound: compound @8 μg/ml
Summary of the method: as §1

[11] = test system: ECL P99; assay type: cell-based, E. cloacae; settings: for MIC ATB combined with Example: Example @8 μg/ml
Summary of the method: as §1

O=C1N2CC(n3cccn3)=CC(C2)N1OC(F)(F)C(=O)[O-].[Li+] (stereo not shown) [Example 13, lithium difluoro-(7-oxo-3-pyrazol-1-yl-1,6-diaza-bicyclo[3.2.1]oct-3-en-6-yloxy)-acetate]
MIC ATB combined with Example ([1]; ATB ATM): 8 µg/mL | MIC ATB combined with Example ([1]; ATB FEP): 8 µg/mL | MIC ATB combined with Example ([1]; ATB FOS): >128 µg/mL | MIC ATB combined with Example ([1]; ATB MEM): 2 µg/mL | MIC ATB combined with Example ([1]; ATB PIP): 32 µg/mL | MIC ATB combined with Example compound ([1]; MIC of CIP): 0.063 µg/mL | MIC ATB combined with Example compound ([1]; MIC of CPO): 16 µg/mL | MIC ATB combined with Example ([2]; ATB ATM): 16 µg/mL | MIC ATB combined with Example ([2]; ATB FEP): 8 µg/mL | MIC ATB combined with Example ([2]; ATB FOS): 8 µg/mL | MIC ATB combined with Example ([2]; ATB MEM): 2 µg/mL | MIC ATB combined with Example ([2]; ATB PIP): >32 µg/mL | MIC ATB combined with Example compound ([2]; MIC of CIP): 1 µg/mL | MIC ATB combined with Example compound ([2]; MIC of CPO): 16 µg/mL | MIC ATB combined with Example ([3]; ATB ATM): 8 µg/mL | MIC ATB combined with Example ([3]; ATB FEP): 32 µg/mL | MIC ATB combined with Example ([3]; ATB FOS): 16 µg/mL | MIC ATB combined with Example ([3]; ATB MEM): 0.5 µg/mL | MIC ATB combined with Example ([3]; ATB PIP): 32 µg/mL | MIC ATB combined with Example compound ([3]; MIC of CIP): 4 µg/mL | MIC ATB combined with Example compound ([3]; MIC of CPO): >32 µg/mL | MIC ATB combined with Example ([4]; ATB ATM, ECO 190317): <0.031 µg/mL | MIC ATB combined with Example ([4]; ATB FEP, ECO 190317): <0.031 µg/mL | MIC ATB combined with Example ([4]; ATB FOS, ECO 190317): <0.125 µg/mL | MIC ATB combined with Example ([4]; ATB MEM, ECO 190317): <0.031 µg/mL | MIC ATB combined with Example ([4]; ATB PIP, ECO 190317): <0.031 µg/mL | MIC ([4]; Escherichia coli): 4 µg/mL | MIC ATB combined with Example compound ([4]; MIC of CIP, compound @8 μg/ml, ECO 190317): <0.031 µg/mL | MIC ATB combined with Example ([5]; ATB ATM): <0.031 µg/mL | MIC ATB combined with Example ([5]; ATB FEP): <0.031 µg/mL | MIC ATB combined with Example ([5]; ATB FOS): <0.125 µg/mL | MIC ATB combined with Example ([5]; ATB MEM): <=0.031 μg/mL | MIC ATB combined with Example ([5]; ATB PIP): <0.031 µg/mL | MIC ([5]; Escherichia coli): 8 µg/mL | MIC ATB combined with Example compound ([5]; MIC of CIP): <0.031 µg/mL | MIC ATB combined with Example compound ([5]; MIC of CPO): <0.031 µg/mL | MIC ATB combined with Example ([6]; ATB ATM): >32 µg/mL | MIC ATB combined with Example ([6]; ATB FEP): 0.063 µg/mL | MIC ATB combined with Example ([6]; ATB FOS): 32 µg/mL | MIC ATB combined with Example ([6]; ATB MEM): <=0.031 μg/mL | MIC ATB combined with Example ([6]; ATB PIP): 0.5 µg/mL | MIC ATB combined with Example compound ([6]; MIC of CIP): 0.5 µg/mL | MIC ATB combined with Example compound ([6]; MIC of CLI): 0.063 µg/mL | MIC ATB combined with Example compound ([6]; MIC of CPO): <=0.031 μg/mL | MIC ATB combined with Example compound ([6]; MIC of DAP): 0.5 µg/mL | MIC ATB combined with Example compound ([6]; MIC of ERY): 0.063 µg/mL | MIC ATB combined with Example compound ([6]; MIC of LZD): 1 µg/mL | MIC ATB combined with Example compound ([6]; MIC of RIF): 0.0078 µg/mL | MIC ATB combined with Example compound ([6]; MIC of SYN): 0.5 µg/mL | MIC ATB combined with Example compound ([6]; MIC of VAN): 0.25 µg/mL | MIC ([6]; Streptococcus pneumoniae): > 32 µg/mL | MIC ATB combined with Example ([7]; ATB ATM): 0.125 µg/mL | MIC ATB combined with Example ([7]; ATB FEP): <=0.031 μg/mL | MIC ATB combined with Example ([7]; ATB FOS): 4 µg/mL | MIC ATB combined with Example ([7]; ATB MEM): >32 µg/mL | MIC ATB combined with Example ([7]; ATB PIP): >32 µg/mL | MIC ([7]; Klebsiella pneumoniae): 16 µg/mL | MIC ATB combined with Example compound ([7]; MIC of CIP): >32 µg/mL | MIC ATB combined with Example compound ([7]; MIC of CPO): 32 µg/mL | MIC ATB combined with Example ([8]; ATB ATM, KPN BAA-1898): 4 µg/mL | MIC ATB combined with Example ([8]; ATB FEP, KPN BAA-1898): 0.25 µg/mL | MIC ATB combined with Example ([8]; ATB FOS, KPN BAA-1898): 4 µg/mL | MIC ATB combined with Example ([8]; ATB MEM, KPN BAA-1898): 0.25 µg/mL | MIC ATB combined with Example ([8]; ATB PIP, KPN BAA-1898): 32 µg/mL | MIC ([8]; Klebsiella pneumoniae, BAA1898): 16 µg/mL | MIC ATB combined with Example compound ([8]; MIC of CIP, compound @8 μg/ml, KPN BAA-1898): 16 µg/mL | MIC ATB combined with Example ([9]; ATB ATM): <=0.031 μg/mL | MIC ATB combined with Example ([9]; ATB FEP): 0.063 µg/mL | MIC ATB combined with Example ([9]; ATB FOS): 8 µg/mL | MIC ATB combined with Example ([9]; ATB MEM): <=0.031 μg/mL | MIC ATB combined with Example ([9]; ATB PIP): 0.5 µg/mL | MIC ATB combined with Example compound ([9]; MIC of CIP, compound @8 μg/ml): 32 µg/mL | MIC ATB combined with Example ([10]; ATB ATM): >32 µg/mL | MIC ATB combined with Example ([10]; ATB FEP): 2 µg/mL | MIC ATB combined with Example ([10]; ATB FOS): 0.5 µg/mL | MIC ATB combined with Example ([10]; ATB MEM): <=0.031 μg/mL | MIC ATB combined with Example ([10]; ATB PIP): 1 µg/mL | MIC ATB combined with Example compound ([10]; MIC of CIP): 0.25 µg/mL | MIC ATB combined with Example compound ([10]; MIC of CLI): 0.063 µg/mL | MIC ATB combined with Example compound ([10]; MIC of CPO): 0.5 µg/mL | MIC ATB combined with Example compound ([10]; MIC of DAP): 1 µg/mL | MIC ATB combined with Example compound ([10]; MIC of ERY): 0.125 µg/mL | MIC ATB combined with Example compound ([10]; MIC of LZD): 1 µg/mL | MIC ATB combined with Example compound ([10]; MIC of RIF): 0.0078 µg/mL | MIC ATB combined with Example compound ([10]; MIC of SYN): 0.25 µg/mL | MIC ATB combined with Example compound ([10]; MIC of VAN): 1 µg/mL | MIC ([10]; Staphylococcus aureus, MSSA): 32 µg/mL | MIC ATB combined with Example ([11]; ATB ATM, ECL P99): 2 µg/mL | MIC ATB combined with Example ([11]; ATB FEP, ECL P99): <=0.031 μg/mL | MIC ATB combined with Example ([11]; ATB FOS, ECL P99): 32 µg/mL | MIC ATB combined with Example ([11]; ATB MEM, ECL P99): <=0.031 μg/mL | MIC ATB combined with Example ([11]; ATB PIP, ECL P99): 4 µg/mL | MIC ([11]; Enterobacter cloacae): 16 µg/mL | MIC ATB combined with Example compound ([11]; MIC of CIP, compound @8 μg/ml, ECL P99): <=0.031 μg/mL
